Here are results for 24 compounds from patent US5578634A, “1H-indole-3-acetic acid hydrazide sPLA2 inhibitors” (Eli Lilly and Company, priority 1995, dated 1996).

One assay has as its target T1, human secreted PLA2 (Homo sapiens, UniProt P14555).
T1 sequence (P14555 21-144): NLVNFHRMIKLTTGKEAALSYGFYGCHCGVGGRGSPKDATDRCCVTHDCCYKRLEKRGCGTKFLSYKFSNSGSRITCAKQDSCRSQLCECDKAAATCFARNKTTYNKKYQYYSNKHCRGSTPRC
The experiment in a line: chromogenic assay of recombinant human secreted phospholipase A2 inhibition (Assay Example 1). Type of assay: biochemical. To be noted: mean of 3-5 tests; 40° C., 30 minutes, pH 7.5, 405 nanometers; read-out: Inhibition of human secreted PLA2 IC50 ± mean deviation (3-5 tests). From the text:
The assay described herein has been adapted for high volume screening using 96 well microtiter plates. A general description of this assay method is found in the article, "Analysis of Human Synovial Fluid Phospholipase A2 on Short Chain Phosphatidylcholine-Mixed Micelles: Development of a Spectrophotometric Assay Suitable for a Microtiterplate Reader", by Laure J. Reynolds, Lori L. […] Reagents, the disclosure of which is incorporated herein by reference. REACTION BUFFER CaCl2.2H20 (1.47 g/L) KCl (7.455 g/L) Bovine Serum Albumin (fatty acid free) (1 g/L) (Sigma A-7030, product of Sigma Chemical Co. St. Louis Mo., USA) TRIS HCl (3.94 g/L) pH 7.5 (adjust with NaOH) ENZYME BUFFER […] 0.2 NaCl Adjust pH to 4.5 with acetic acid DTNB […] RACEMIC DIHEPTANOYL THIO - PC […] TRITON X-100™ prepare at 6.249 mg/ml in reaction buffer to equal […]. REACTION MIXTURE A measured volume of racemic dipheptanoyl thio PC supplied in chloroform at a concentration of 100 mg/ml is taken to dryness and redissolved in 10 millimolar TRITON X-100™ nonionic detergent aqueous solution. Reaction Buffer is added to the solution, then DTNB to give the Reaction Mixture. The reaction mixture thus obtained contains 1 mM diheptanoly thio-PC substrate, 0.29 mM Triton X-100™ detergent, and 0.12 mM DTMB in a buffered aqueous solution at pH 7.5. Assay Procedure: 1. Add 0.2 ml reaction mixture to all wells; 2. Add 10 ul test compound (or solvent blank) to appropriate wells, mix 20 seconds; 3. Add 50 nanograms of sPLA2 (10 microliters) to appropriate wells; 4. Incubate plate at 40° C. for 30 minutes; […] Read absorbance of wells at 405 nanometers with an automatic plate reader. All compounds were tested in triplicate. Typically, compounds were tested at a final concentration of 5 ug/ml. […] Lack of color development at 405 nanometers evidenced inhibition. Compounds initially found to be active were reassayed to confirm their activity and, if sufficiently active, IC50 values were determined. […] In all cases, % inhibition measured at 405 nanometers generated by enzyme reactions containing inhibitors relative to the uninhibited control reactions was determined. Each sample was titrated in triplicate and result values were averaged for plotting and calculation of IC50 values. […] IC50 values were determined at least three times for each compound tested.

A further assay deals with T2, sPLA2 contraction (Homo sapiens, UniProt P14555).
T2 sequence (P14555 21-144): T1 sequence (P14555 21-144)
Nature of the assay: sPLA2-induced contraction of guinea pig lung pleural strips, tissue test (Assay Example 2). To be noted: guinea pig, sPLA2 10 ug/ml; for inhibition at 10 µM: compound concentration 10 uM, read-out: % suppression of sPLA2 contraction at 10 uM; for inhibition at 30 µM: compound concentration 30 uM, read-out: % suppression of sPLA2 contraction at 30 uM. Further details: species or system Male Hartley strain guinea pigs. From the text:
Male Hartley strain guinea pigs (500-700 g) were killed by cervical dislocation and their heart and lungs removed intact and placed in aerated (95% O2 :5% CO2) Krebs buffer. Dorsal pleural strips (4×1×25 mm) were dissected from intact parenchymal segments (8×4×25 mm) cut parallel to the outer edge of the lower lung lobes. Two adjacent pleural strips, obtained from a single lobe and representing a single tissue sample, were tied at either end and independently attached to a metal support rod. One rod was attached to a Grass force-displacement transducer (Model FTO3C, product of Grass Medical Instruments Co., Quincy, Mass., USA). […] All tissues were placed in 10 ml jacketed tissue baths maintained at 37° C. The tissue baths were continuously aerated and contained a modified Krebs solution of the following composition (millimolar) NaCl, 118.2; KCl, 4.6; CaCl2.2H2 O, 2.5; MgSO4.7H2 O, 1.2; NaHCO3, 24.8; KH2 PO4, 1.0; and dextrose, 10.0. Pleural strips from the opposite lobes of the lung were used for paired experiments. […] The tissues were allowed to equilibrate for 45 min. as the bath fluid was changed periodically. Cumulative concentration-response curves: Initially tissues were challenged 3 times with KCl (40 mM) to test tissue viability and to obtain a consistent response. After recording the maximal response to KCl the tissues were washed and allowed to return to baseline before the next challenge. Cumulative concentration-response curves were obtained from pleural strips by increasing the agonist concentration (sPLA2) in the tissue bath by half-log10 increments while the previous concentration remained in contact with the tissues (Ref.1, supra.) Agonist concentration was increased after reaching the plateau of the contraction elicited by the preceding concentration. One concentration-response curve was obtained from each tissue. To minimize variability between tissues obtained from different animals, contractile responses were expressed as a percentage of the maximal response obtained with the final KCl challenge. When studying the effects of various drugs on the contractile effects of sPLA2, the compounds and their respective vehicles were added to the tissues 30 min. prior to starting the sPLA2 concentration-response curves. statistical analysis: Data from different experiments were pooled and presented as a percentage of the maximal KCl responses (mean±S.E.). To estimate the drug induced rightward shifts in the concentration response curves, the curves were analyzed simultaneously using statistical nonlinear modeling methods similar to those described by Waud (1976), Equation 26, p. 163, (Ref.2). The model includes four parameters: the maximum tissue response which was assumed the same for each curve, the ED50 for the control curve, the steepness of the curves, and the PA2, the concentration of antagonist that requires a two-fold increase in agonist to achieve an equivalent response. The Schild slope was determined to be 1, using statistical nonlinear modeling methods similar to those described by Waud (1976), Equation 27, p. 164 (Ref. 2). […] To estimate the drug-induced suppression of the maximal responses, sPLA2 responses (10 ug/ml) were determined in the absence and presence of drug, and percent suppression was calculated for each pair of tissues. Ref. 1--van Rossum, J. M.: Cumulative dose-response curves. II. Technique for the making of dose-response curves in isolated organs and the evaluation of drug parameters. Arch. Int. Pharmacodyn. Ther. 143: 299-330, 1963. Ref. 2--Waud, D.: Analysis of dose-response relationships. in Advances in General and Cellular Pharmacology […]

For the compound `Cc1c(CC(=O)NN)c2cc(C(=O)O)ccc2n1Cc1cccc(Cl)c1` [Example 68, 5-Carboxy-1-[(3-chlorophenyl)methyl]-2-methyl-1H-indole-3-acetic acid hydrazide], on human secreted PLA2, the 50% inhibitory concentration (IC50) was 360 ± 30 nM. In addition, at sPLA2 contraction, the inhibition at 10 µM amounted to 41.2 ± 3.8% and the inhibition at 30 µM came out at 48 ± 7%.
On to `COc1ccc2c(c1)c(CC(=O)NN)c(Cl)n2Cc1ccccc1` [Example 43, 2-Chloro-5-methoxy-1-(phenylmethyl)-1H-indole-3-acetic acid hydrazide], for which the IC50 at human secreted PLA2 came to 390 ± 30 nM. The inhibition at 30 µM at sPLA2 contraction worked out at 91.3 ± 6%.
As to `COc1ccc2c(c1)c(CC(=O)NN)c(C)n2Cc1cccc(OCc2ccccc2)c1` [Example 30, 1-[(3-Benzyloxyphenyl)methyl]-5-methoxy-2-methyl-1H-indole-3-acetic acid hydrazide], the IC50 on human secreted PLA2 is 610 ± 220 nM. Moreover, on sPLA2 contraction, the inhibition at 10 µM was found to be 21.4% and the inhibition at 30 µM stood at 60.9 ± 9.7%.
Take `Cc1c(CC(=O)NN)c2cc(C(=O)NN)ccc2n1Cc1ccccc1` [Example 70, 5-Hydrazinocarbonyl-2-methyl-1-(phenylmethyl)-1H-indole-3-acetic acid hydrazide]: the concentration for half-maximal inhibition (IC50) at human secreted PLA2 was determined as 2470 ± 640 nM. On sPLA2 contraction, the inhibition at 30 µM was determined as 45.1 ± 6.8%.
Take `COc1ccc2c(c1)c(CC(=O)NN)c(Br)n2Cc1ccccc1` [Example 44, 2-Bromo-5-methoxy-1-(phenylmethyl)-1H-indole-3-acetic acid hydrazide]: the IC50 at human secreted PLA2 was found to be 430 ± 30 nM. Moreover, the inhibition at 30 µM at sPLA2 contraction came to 87.4 ± 9.3%.
With `COc1ccc(Cn2c(C)c(CC(=O)NN)c3cc(OC)ccc32)cc1` [Example 28, 5-Methoxy-1-[(4-methoxyphenyl)methyl]-2-methyl-1H-indole-3-acetic acid hydrazide], the IC50 on human secreted PLA2 worked out at 11700 ± 4040 nM.
For `NNC(=O)Cc1cn(Cc2ccccc2)c2ccc(OCc3ccccc3)cc12` [Example 9, 5-Benzyloxy-1-(phenylmethyl)-1H-indole-3-acetic acid hydrazide], at human secreted PLA2, the IC50 amounted to 2310 ± 650 nM.
As for `Cc1c(CC(=O)NN)c2cc(-c3ccccc3)ccc2n1Cc1ccccc1` [Example 56, 2-Methyl-5-phenyl-1-(phenylmethyl)-1H-indole-3-acetic acid hydrazide], the IC50 on human secreted PLA2 turned out to be 860 ± 200 nM.
Still for that read-out and setting: the same measure for `Cc1c(CC(=O)NN)c2cc(Br)ccc2n1Cc1cccc(-c2ccccc2)c1` [Example 51, 1-([1,1'-biphenyl]-3-ylmethyl)-5-bromo-2-methyl-1H-indole-3-acetic acid hydrazide]: 1340 ± 440 nM; for `COc1ccc2c(c1)c(CC(=O)NN)c(SC)n2Cc1ccccc1` [Example 45, 5-Methoxy-2-methylthio-1-(phenylmethyl)-1H-indole-3-acetic acid hydrazide]: 600 ± 130 nM; for `Cc1c(CC(=O)NN)c2ccc(Br)cc2n1Cc1ccccc1` [Example 54, 6-Bromo-2-methyl-1-(phenylmethyl)-1H-indole-3-acetic acid hydrazide]: 1020 ± 260 nM.
Same read-out and setting: in the case of `COc1ccc2c(c1)c(CC(=O)NN)c(C)n2Cc1cccc([N+](=O)[O-])c1` [Example 34, 5-Methoxy-2-methyl-1-[(3-nitrophenyl)methyl]-1H-indole-3-acetic acid hydrazide] it was 15200 ± 770 nM; in that of `Cc1c(CC(=O)NN)c2cc(Br)ccc2n1Cc1ccccc1` [Example 50, 5-Bromo-2-methyl-1-(phenylmethyl)-1H-indole-3-acetic acid hydrazide], 1020 ± 430 nM; in that of `COc1cccc(Cn2c(C)c(CC(=O)NN)c3cc(OC)ccc32)c1` [Example 27, 5-Methoxy-1-[(3-methoxyphenyl)methyl]-2-methyl-1H-indole-3-acetic acid hydrazide], 2180 ± 510 nM.
As for `COc1ccc2c(c1)c(CC(=O)NN)cn2Cc1ccccc1-c1ccccc1` [Example 12, 1-([1,1'-Biphenyl]-2-ylmethyl)-5-methoxy-1H-indole-3-acetic acid hydrazide], the IC50 at human secreted PLA2 turned out to be 5490 ± 4290 nM.
In the case of “5-Methoxy-1-(phenylmethyl)-1H-indole-3-propanoic acid hydrazide [Example 64]”, the 50% inhibitory concentration (IC50) at human secreted PLA2 was determined as 5900 ± 2990 nM.
Consider `COc1ccc2c(c1)c(CC(=O)NN)c(C)n2Cc1ccccc1Cl` [Example 17, 1-(2-Chlorophenylmethyl)-5-methoxy-2-methyl-1H-indole-3-acetic acid hydrazide], for which the IC50 at human secreted PLA2 was 1710 ± 240 nM.
For the compound `COc1ccc2c(c1)c(CC(=O)NN)c(C)n2CC(C)C` [Example 13, 5-Methoxy-2-methyl-1-(2-methyl-1-propyl)-1H-indole-3-acetic acid hydrazide], the concentration for half-maximal inhibition (IC50) at human secreted PLA2 came out at 9880 ± 3410 nM.
Regarding `COc1ccc2c(c1)c(CC(=O)NN)c(C)n2Cc1ccc(Cl)cc1` [Example 19, 1-(4-Chlorophenylmethyl)-5-methoxy-2-methyl-1H-indole-3-acetic acid hydrazide], the IC50 on human secreted PLA2 was found to be 9280 ± 2060 nM.
On to “5-Methoxy-2-methyl-1-(phenylmethyl)-1H-indole-3-butanoic acid hydrazide [Example 67]”, for which, at human secreted PLA2, the IC50 is 24200 ± 10700 nM.
On to `CCc1c(CC(=O)NN)c2cc(C)ccc2n1Cc1ccccc1` [Example 6, 2-Ethyl-5-methyl-1-(phenylmethyl)-1H-indole-3-acetic acid hydrazide], for which the IC50 on human secreted PLA2 turned out to be 670 ± 240 nM.
With `Cc1c(CC(=O)NN)c2c(-c3ccccc3)cccc2n1Cc1ccccc1` [Example 55, 2-Methyl-4-phenyl-1-(phenylmethyl)-1H-indole-3-acetic acid hydrazide], the IC50 at human secreted PLA2 turned out to be 2060 ± 940 nM.
For the compound “5-Methoxy-1-(phenylmethyl)-1H-indole-3-butanoic acid hydrazide [Example 66]”, on human secreted PLA2, the IC50 was 9960 ± 5610 nM.
Still for that read-out and setting: in the case of `Cc1c(CC(=O)NN)c2cc(Cl)ccc2n1Cc1ccccc1` [Example 48, 5-Chloro-2-methyl-1-(phenylmethyl)-1H-indole-3-acetic acid hydrazide] it was 740 ± 150 nM.

Usually IC50 stands for the concentration needed to halve the response being measured.
